Some test systems named below: RXF 393; K562; HCT-116; SK-MEL-2; Hs-578T; SF-268; SK-MEL-5; HL-60; MCF7; HT-29; PC-3; TK-10; HOP-62; IGROV-1; SF-295; U-251; OVCAR-3; BT-549; SNB-19; DMS-273.
Holding throughout (assay): inhibition of tumour cell growth, NCI panel, 48 h

The values that follow come from ChEMBL document CHEMBL1201862, “PubChem BioAssay data set” (2004).

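Dose response: 5 concentrations. Exposure: 48 h. Format: 96-well plates. Endpoint: linear interpolation; highest concentration if not reached. GI50 marks 50% less growth.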 Activity calls are given as the source filed them. Cut-off read from the data, not from the text of the source: active = GI50 up to about 1.1 µM and inactive = higher.

Consider `COC1OC(CO)C(O)C(OC(=O)c2cc(O)c(O)c(O)c2)C1OC(=O)c1cc(O)c(O)c(O)c1` (stereo not drawn), for which the GI50 in the assay with RXF 393 was > 100 µM (inactive); in the assay on K562, 35.6 µM (inactive); in the assay with HCT-116 it was 37.7 µM (inactive); in the assay on SK-MEL-2, > 100 µM (inactive); in the assay with Hs-578T, > 100 µM (inactive); with SF-268, 59.4 µM (inactive). Further, the GI50 in the assay on SK-MEL-5 is 36.7 µM (inactive); with HL-60 it was 51.9 µM (inactive); in the assay with MCF7, > 100 µM (inactive); with HT-29 it was 65 µM (inactive); in the assay on PC-3 it was 95.5 µM (inactive); with TK-10, > 100 µM (inactive). The GI50 with HOP-62 was 91 µM (inactive); in the assay on IGROV-1, > 100 µM (inactive); with SF-295 it was 20.2 µM (inactive); in the assay with U-251, > 100 µM (inactive); with OVCAR-3 it was > 100 µM (inactive); in the assay with BT-549, > 100 µM (inactive). The GI50 in the assay with SNB-19 is > 100 µM (inactive).
For the compound `COc1ccc2c(C)cc(N/N=C/c3ccc(OC)c4ccccc34)nc2c1`, the GI50 in the assay on RXF 393 was 16.7 µM (inactive); with K562, 10.1 µM (inactive); in the assay on HCT-116, 5.35 µM (inactive); with SK-MEL-2 it was 19.2 µM (inactive); in the assay with Hs-578T, 15.7 µM (inactive); with SF-268 it was 15.9 µM (inactive). In addition, the GI50 in the assay with SK-MEL-5 is 16.4 µM (inactive); in the assay on HL-60, 20.8 µM (inactive); in the assay on MCF7, 19.4 µM (inactive); in the assay with HT-29, 7.82 µM (inactive); with PC-3, 16.9 µM (inactive); with TK-10, 17.3 µM (inactive). The GI50 with HOP-62 is 18.2 µM (inactive); with IGROV-1, 14.9 µM (inactive); with SF-295, 16.8 µM (inactive); in the assay with U-251, 3.66 µM (inactive); in the assay on OVCAR-3, 2.96 µM (inactive); in the assay with BT-549, 20.1 µM (inactive). Moreover, the GI50 in the assay on SNB-19 is 18.8 µM (inactive).
On to `C/C(=N/NC(=S)Nc1ccccc1C)c1ccccn1`, for which the GI50 was 0.682 µM (active) with RXF 393; < 0.0145 µM (active) in the assay on K562; < 0.0152 µM (active) in the assay with HCT-116; 2.65 µM (inactive) in the assay on SK-MEL-2; 15.7 µM (inactive) with Hs-578T; 0.14 µM (active) in the assay with SF-268. Moreover, the GI50 in the assay with SK-MEL-5 is 0.0766 µM (active); in the assay with HL-60 it was 0.0143 µM (active); in the assay on MCF7, 0.0164 µM (active); in the assay on HT-29, 0.0726 µM (active); with PC-3, < 0.0153 µM (active); in the assay on TK-10, 0.259 µM (active). Also, the GI50 in the assay on HOP-62 is 0.0299 µM (active); in the assay with IGROV-1, < 0.0182 µM (active); with SF-295, 0.175 µM (active); with U-251, 0.0571 µM (active); in the assay with OVCAR-3 it was 0.0144 µM (active); with BT-549 it was 3.14 µM (inactive). Besides, the GI50 in the assay with SNB-19 was 2.43 µM (inactive).
As for `C/C(Cc1ccc2c(c1)OCO2)=N\N=c1\sc2ccccc2n1C`, the GI50 is > 100 µM (inactive) in the assay on RXF 393; > 100 µM (inactive) with K562; 48.5 µM (inactive) in the assay on HCT-116; > 100 µM (inactive) in the assay on SK-MEL-2; > 100 µM (inactive) with Hs-578T; > 100 µM (inactive) in the assay on SF-268. Besides, the GI50 was 45.2 µM (inactive) with SK-MEL-5; > 100 µM (inactive) with HL-60; 72.9 µM (inactive) in the assay on MCF7; 42.8 µM (inactive) with HT-29; 97.1 µM (inactive) in the assay on PC-3; > 100 µM (inactive) in the assay with TK-10. Further, the GI50 in the assay with HOP-62, with IGROV-1, in the assay with SF-295, in the assay with U-251, in the assay with OVCAR-3 and in the assay with BT-549 was > 100 µM (inactive) in each case. For the same compound, in the assay with SNB-19, the GI50 was > 100 µM (inactive).
On to `CN1CCC(CNC(=O)CCCCCCCCC(=O)NCC2(c3ccccc3)CCN(C)CC2)(c2ccccc2)CC1`, for which the GI50 with RXF 393 is > 100 µM (inactive); with K562, 77.1 µM (inactive); with HCT-116, 60.1 µM (inactive); in the assay on SK-MEL-2 it was > 100 µM (inactive); with Hs-578T, 84.1 µM (inactive); in the assay on SF-268 it was 14.3 µM (inactive). For the same compound, the GI50 in the assay on SK-MEL-5 is > 100 µM (inactive); in the assay with HL-60 it was > 100 µM (inactive); in the assay with MCF7 it was > 100 µM (inactive); in the assay with HT-29, 45.5 µM (inactive); with PC-3 it was > 100 µM (inactive); in the assay with TK-10, > 100 µM (inactive). In addition, the GI50 in the assay with HOP-62, in the assay on IGROV-1, in the assay on SF-295, with U-251, with OVCAR-3 and in the assay on BT-549 was > 100 µM (inactive) each time. Further, the GI50 in the assay on SNB-19 was > 100 µM (inactive).
`COC1/C=C/C(C)C(C(C)C(OC)C(C)CCC(=O)C(C)C(CCC(=O)O)OC)OC(=O)/C=C/C=C(\C)CC(OC)CC2=CC(=O)O[C@@H](C(C)C(OC)CC(OC)/C=C/C(C)C(OC)C1)[C@H]2O` (stereo partly drawn): the GI50 with RXF 393 is 0.583 µM (active); in the assay on K562, 1.92 µM (inactive); with HCT-116, 0.385 µM (active); in the assay with SK-MEL-2, 0.271 µM (active); in the assay on Hs-578T, 0.499 µM (active); in the assay on SF-268, 0.284 µM (active). Further, the GI50 is 0.296 µM (active) with SK-MEL-5; 0.185 µM (active) in the assay on HL-60; 1.04 µM (active) in the assay with MCF7; 0.284 µM (active) in the assay on HT-29; 0.454 µM (active) in the assay with PC-3; 1.65 µM (inactive) with TK-10. Besides, the GI50 is 0.631 µM (active) in the assay on HOP-62; 0.177 µM (active) in the assay with IGROV-1; 0.859 µM (active) with SF-295; 0.249 µM (active) in the assay with U-251; 0.646 µM (active) in the assay on OVCAR-3; 0.661 µM (active) with BT-549. Also, in the assay on SNB-19, the GI50 is 0.679 µM (active).
Consider `N=C(NC(=N)Nc1ccc(S(=O)(=O)Nc2cnc3ccccc3n2)cc1)Nc1ccc(Br)cc1`, for which the GI50 with K562, in the assay on SK-MEL-2, in the assay with SF-268, with SK-MEL-5, in the assay with HT-29 and in the assay with TK-10 was > 100 µM (inactive) in each case. The GI50 in the assay on HOP-62, in the assay with IGROV-1, in the assay with SF-295, in the assay on U-251, in the assay with OVCAR-3 and with SNB-19 was > 100 µM (inactive) each time. Also, the GI50 with DMS-273 is > 100 µM (inactive).
As for `Cc1cc2ncn(C3CCCO3)c2cc1C` (stereo not drawn), the GI50 in the assay with RXF 393, in the assay on K562, in the assay on HCT-116, in the assay on SK-MEL-2, in the assay with Hs-578T and in the assay with SF-268 was > 100 µM (inactive) in each case. Besides, the GI50 in the assay on SK-MEL-5, with HL-60, with MCF7, in the assay on HT-29, in the assay on PC-3 and in the assay with TK-10 was > 100 µM (inactive) in each case. Further, the GI50 with HOP-62, in the assay on IGROV-1, in the assay on SF-295, with U-251, with OVCAR-3 and in the assay on BT-549 was > 100 µM (inactive) throughout. In the assay with SNB-19, the GI50 was > 100 µM (inactive).
For `[O-]/[N+](=C\c1ccccc1OC(=S)S)c1ccc(Cl)cc1`, the GI50 with RXF 393 was 45.7 µM (inactive); in the assay with K562, 10.6 µM (inactive); in the assay on HCT-116, 10.1 µM (inactive); with SK-MEL-2, 20 µM (inactive); in the assay with Hs-578T, 51.1 µM (inactive); with SF-268, 19.5 µM (inactive). Further, the GI50 with SK-MEL-5 is 0.224 µM (active); in the assay with HL-60, 0.22 µM (active); in the assay with MCF7, 13 µM (inactive); in the assay with HT-29, 22.4 µM (inactive); in the assay on PC-3, 23.9 µM (inactive); in the assay on TK-10 it was > 100 µM (inactive). The GI50 was 47.9 µM (inactive) with HOP-62; 12.1 µM (inactive) in the assay on IGROV-1; 0.177 µM (active) with SF-295; 19.8 µM (inactive) in the assay with U-251; 18.7 µM (inactive) with OVCAR-3; 24.1 µM (inactive) with BT-549. Besides, the GI50 with SNB-19 was 83.4 µM (inactive).
As to `N#C[BH2-][n+]1cn(C2CC(OP(=O)(O)OCC3OC(n4ccc(N)nc4=O)CC3O)C(CO)O2)c2nc(N)[nH]c(=O)c21` (stereo not drawn), the GI50 in the assay on RXF 393, with K562, in the assay on HCT-116, in the assay with SK-MEL-2, in the assay on Hs-578T and in the assay on SF-268 was > 100 µM (inactive) each time. Besides, the GI50 in the assay on SK-MEL-5, in the assay on HL-60, in the assay on MCF7, in the assay on HT-29, with PC-3 and in the assay with TK-10 was > 100 µM (inactive) each time. Further, the GI50 in the assay on HOP-62, in the assay with IGROV-1, in the assay on SF-295, in the assay with U-251, with OVCAR-3 and in the assay with BT-549 was > 100 µM (inactive) throughout. For the same compound, the GI50 in the assay with SNB-19 was > 100 µM (inactive).
With `FC(F)(F)c1ccc2c(c1)nc(Cc1ccc(Cl)cc1)n2CC1CCCN2CCCCC12` (stereo not drawn), the GI50 in the assay with RXF 393 was 10.3 µM (inactive); with K562, 4.18 µM (inactive); in the assay with HCT-116, 6.35 µM (inactive); with SK-MEL-2, 13.6 µM (inactive); in the assay on Hs-578T, 1.19 µM (inactive); in the assay on SF-268, 5.07 µM (inactive). The GI50 in the assay on SK-MEL-5 was 3.89 µM (inactive); in the assay with HL-60 it was 2.23 µM (inactive); with MCF7, 10.2 µM (inactive); in the assay with HT-29, 2.81 µM (inactive); in the assay on PC-3, 8.65 µM (inactive); with TK-10, 12.2 µM (inactive). Also, the GI50 in the assay with HOP-62 was 14.1 µM (inactive); in the assay with IGROV-1 it was 10.4 µM (inactive); in the assay with SF-295, 10.5 µM (inactive); with U-251, 8.24 µM (inactive); with OVCAR-3 it was 3.8 µM (inactive); with BT-549 it was 11.5 µM (inactive). Moreover, the GI50 in the assay with SNB-19 was 14 µM (inactive).
